Data on eleven compounds can be found in US20140234888A1, “Method for Improved Selection of Therapeutic Agents” (priority 2013, published 2014).

The test system of one test is whole blood. Description: TDR-test in vitro, blood of patient G. (Example 1). The test is classed as cell-based, human. The conditions noted are these: for reduction TDR: after 24 hours of incubation.
Another test relates to blood cell fraction. Description: TDR-test in vitro, blood of patient B. (Example 2). Format: cell-based, human. The conditions noted are these: for reduction TDR: patient B. blood, after 24 hours of incubation. The procedure: Individual selection of anticancer chemotherapy was based on testing the dynamics of TDR in blood with cytostatics—Etoposide (in single therapeutic doses 80-100-120 mg/m2), Cisplatin (25-50-75-100 mg/m2), Carboplatin (150-300-450 mg/m2), Gemcitabine (800-1000-1200 mg/m2), Navelbine (25-30-35 mg/m2), Doxorubicin (20-30-40 mg/m2), Epidoxorubicin (50-70-90 mg/m2), Mitomycin C (4-6-8 mg/m2).

Test [1] deals with Chronic obstructive bronchitis. Description: Treatment of patient M. The test is classed as in vivo, human. The conditions noted are these: endobronchial 250 mg followed by inductothermy 30 minutes, 1 treatment per day, 10 procedures, 2 weeks. The procedure: Based on the results of investigations the patient was assigned to a combination of antibiotic Cefazolin and inductothermy: endobronchial administration of Cefazolin 250 mg and immediately after this session inductothermy the projection of the large bronchi in the anterior-posterior direction with opposing fields of the two vehicles “Magniterm” for 30 minutes.

The subject of another test is patient's blood. Description: TDR-test in vitro, blood of patient M. (Example 4). The conditions noted are these: various doses, 1, 2 and 24 hours.
Test [2] deals with microflora of the respiratory tract. Description: Sputum sample sensitivity to antibiotics (antibiotikogramma). The conditions noted are these: sputum sample of patient M. Format: cell-based.
The test system of test [3] is Chronic rhinitis of allergic origin, chronic bronchitis. Description: Treatment of patient F. Format: in vivo, human. The conditions noted are these: before individual testing. The protocol:
Diagnosis: “Chronic rhinitis of allergic origin, chronic bronchitis, allergic component in the acute stage.” In history: positive allergic reactions to penicillin antibiotics, the lack of reaction to tetracycline antibiotics. […] Doxycycline is used in doses of 100 mg and 200 mg on admission; when calculating the duration of induktothermy effect was adopted by the duration of the patient's blood sample for 2 seconds, which corresponds to the length of the actual procedure, 25-30 minutes.

Description for patient's blood: Therefore, we first proposed to take, in fact, it is a dynamic integrated assessment test “in vitro” level of nonspecific resistance to therapeutic agents during interaction with the blood of the patient. Selection of optimal treatments, their doses and combinations proposed to control the TDR dynamics within 24-72 hours, with some time intervals. The choice of temporary interval for determination the TDR dynamic is defined of main stage of the biochemical interaction of medicine (or non-drug therapeutic influence) with blood of the patient in vitro (phase 1—induction of biochemical reactions within the first 10-40 minutes, 2nd—for 1-3 hours, 3rd—within 24-72 hours). Therefore, TDR is expedient to record in intervals of precisely these three main stages of the induced signal transduction and protein synthesis (30-60 minutes, 2-3 hours, 24-72 hours after the start of testing).

As to `N.N.O=C([O-])C1(C(=O)[O-])CCC1.[Pt+2]` [Carboplatin], the “reduction TDR” value in the test on whole blood (dose 450 mg/m2) was 36%; in the test on blood cell fraction (dose 350 mg/m2), 27%.

With `Cc1nnc(SCC2=C(C(=O)O)N3C(=O)[C@@H](NC(=O)Cn4cnnn4)[C@H]3SC2)s1` [Cefazolin], the clinical outcome in test [1] is “sustained remission of chronic bronchitis”. Further, the “change of TDR in blood samples during the incubation” value in the test on patient's blood is “progressive decrease”. In test [2], the “sensitivity of the microflora to the antibiotic” value is on record as “highly sensitive”.

On to `N.N.[Cl][Pt][Cl]` [Cisplatin], for which the “reduction TDR” value in the test with whole blood (dose 75 mg/m2) and with blood cell fraction (dose 100 mg/m2) was 32% each time.

For the compound `O=P1(N(CCCl)CCCl)NCCCO1` (stereo not drawn) [Cyclophosphamide], the “reduction TDR” value with whole blood (dose 600 mg/m2) came out at 30%.

For `CN1CCc2c(c3ccccc3n2Cc2ccccc2)C1` [Diazolin], in test [3], the “efficiency of conventional therapy” value was “low efficiency”.

`CC[C@H]1OC(=O)[C@H](C)[C@@H](O[C@H]2C[C@@](C)(OC)[C@@H](O)[C@H](C)O2)[C@H](C)[C@@H](O[C@@H]2O[C@H](C)C[C@H](N(C)C)[C@H]2O)[C@](C)(O)C[C@@H](C)C(=O)[C@H](C)[C@@H](O)[C@]1(C)O` [Erythromycin]: in test [3], the “efficiency of conventional therapy” value is reported as “low efficiency”.

Take `COc1cc([C@@H]2c3cc4c(cc3[C@@H](O[C@@H]3O[C@@H]5CO[C@@H](C)O[C@H]5[C@H](O)[C@H]3O)[C@H]3COC(=O)[C@H]23)OCO4)cc(OC)c1O` [Etoposide]: in the test on blood cell fraction (dose 120 mg/m2), the “reduction TDR” value is recorded as 21%.

`CC(=O)N[C@H]1[C@H](O[C@H]2[C@H](O[C@H](C)C(=O)N[C@@H](C)C(=O)N[C@H](CCC(=O)O)C(N)=O)[C@@H](NC(C)=O)C(O)O[C@@H]2CO)O[C@H](CO)[C@@H](O)[C@@H]1O` (stereo partly drawn) [GMDP, glucosomuramyldipeptide]: the “TDR increase compared to control” value in the test with whole blood (24 h incubation, dose 5 mg) is 64%. In addition, the “increase in TDR compared with the control” value in the test on blood cell fraction (patient B. blood cell fraction, after 1 hour of incubation, dose 50 mg) is 78%. The “increase in TDR” value in the test on blood cell fraction (patient B. blood cell fraction, after 24 h of incubation, dose 10 mg) came out at 228%.

Take `Nc1ccn([C@@H]2O[C@H](CO)[C@@H](O)C2(F)F)c(=O)n1` [Gemcitabine]: the “reduction TDR” value with blood cell fraction (dose 1200 mg/m2) stood at 30%.

For `CCC1=C[C@@H]2CN(C1)Cc1c([nH]c3ccccc13)[C@@](C(=O)OC)(c1cc3c(cc1OC)N(C)[C@H]1[C@@](O)(C(=O)OC)[C@H](OC(C)=O)[C@]4(CC)C=CCN5CC[C@]31[C@@H]54)C2` [Navelbine], the “reduction TDR” value in the test on blood cell fraction (dose 25 mg/m2) is 20%.

In the case of `CC(=O)O[C@H]1C(=O)[C@@]2(C)[C@H]([C@H](OC(=O)c3ccccc3)[C@]3(O)C[C@H](OC(=O)[C@H](O)[C@@H](NC(=O)c4ccccc4)c4ccccc4)C(C)=C1C3(C)C)[C@]1(OC(C)=O)CO[C@@H]1C[C@@H]2O` [Paclitaxel], the “reduction TDR” value in the test with whole blood (dose 175 mg/m2) stood at 28%; in the test with blood cell fraction (dose 190 mg/m2) it was 25%.
